In one assay the target is T1, BRM (Homo sapiens, UniProt P51531).
T1 construct: made in house; host or cells: High Five insect cells
Kind of assay: ATPase catalytic activity of BRM, ADP-Glo in vitro biochemical assay. Conditions: for IC50: ATPase catalytic activity, ADP-Glo, 30 nM BRM, 400 μM ATP; for Ratio*: ratio of BRG1 IC50 to BRM IC50. An outline of the steps: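 ADP-Glo luminescence, after depletion of leftover ATP and conversion of ADP, reported the activity. The 1 h room-temperature reaction held 400 μM ATP, 20 nM salmon sperm DNA and 30 nM BRM in 20 mM Tris pH 8, 20 mM MgCl2, 50 mM NaCl, 0.1% Tween-20, 1 mM DTT.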
A general note: ADP-Glo turns the ADP formed in a reaction into a luminescent signal.

Another assay has as its target T2, BRG-1 (Homo sapiens, UniProt P51532).
T2 construct: made in house; host or cells: High Five insect cells
Kind of assay: ATPase catalytic activity of BRG-1, ADP-Glo in vitro biochemical assay. The following applies: ATPase catalytic activity, ADP-Glo; 30 nM BRG-1, 400 μM ATP; read-out: BRG1 IC50. Summed up:
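Luminescence read-out: ADP formed by BRG-1 ATPase is converted to ATP and detected by luciferase. Residual ATP is first removed with ADP-Glo Reagent for 40 min at RT; detection reagent is then incubated 60 min at RT before reading.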

Broadly, the IC50 is the concentration needed to halve the response being measured.

T2 sequence (P51532 whole entry): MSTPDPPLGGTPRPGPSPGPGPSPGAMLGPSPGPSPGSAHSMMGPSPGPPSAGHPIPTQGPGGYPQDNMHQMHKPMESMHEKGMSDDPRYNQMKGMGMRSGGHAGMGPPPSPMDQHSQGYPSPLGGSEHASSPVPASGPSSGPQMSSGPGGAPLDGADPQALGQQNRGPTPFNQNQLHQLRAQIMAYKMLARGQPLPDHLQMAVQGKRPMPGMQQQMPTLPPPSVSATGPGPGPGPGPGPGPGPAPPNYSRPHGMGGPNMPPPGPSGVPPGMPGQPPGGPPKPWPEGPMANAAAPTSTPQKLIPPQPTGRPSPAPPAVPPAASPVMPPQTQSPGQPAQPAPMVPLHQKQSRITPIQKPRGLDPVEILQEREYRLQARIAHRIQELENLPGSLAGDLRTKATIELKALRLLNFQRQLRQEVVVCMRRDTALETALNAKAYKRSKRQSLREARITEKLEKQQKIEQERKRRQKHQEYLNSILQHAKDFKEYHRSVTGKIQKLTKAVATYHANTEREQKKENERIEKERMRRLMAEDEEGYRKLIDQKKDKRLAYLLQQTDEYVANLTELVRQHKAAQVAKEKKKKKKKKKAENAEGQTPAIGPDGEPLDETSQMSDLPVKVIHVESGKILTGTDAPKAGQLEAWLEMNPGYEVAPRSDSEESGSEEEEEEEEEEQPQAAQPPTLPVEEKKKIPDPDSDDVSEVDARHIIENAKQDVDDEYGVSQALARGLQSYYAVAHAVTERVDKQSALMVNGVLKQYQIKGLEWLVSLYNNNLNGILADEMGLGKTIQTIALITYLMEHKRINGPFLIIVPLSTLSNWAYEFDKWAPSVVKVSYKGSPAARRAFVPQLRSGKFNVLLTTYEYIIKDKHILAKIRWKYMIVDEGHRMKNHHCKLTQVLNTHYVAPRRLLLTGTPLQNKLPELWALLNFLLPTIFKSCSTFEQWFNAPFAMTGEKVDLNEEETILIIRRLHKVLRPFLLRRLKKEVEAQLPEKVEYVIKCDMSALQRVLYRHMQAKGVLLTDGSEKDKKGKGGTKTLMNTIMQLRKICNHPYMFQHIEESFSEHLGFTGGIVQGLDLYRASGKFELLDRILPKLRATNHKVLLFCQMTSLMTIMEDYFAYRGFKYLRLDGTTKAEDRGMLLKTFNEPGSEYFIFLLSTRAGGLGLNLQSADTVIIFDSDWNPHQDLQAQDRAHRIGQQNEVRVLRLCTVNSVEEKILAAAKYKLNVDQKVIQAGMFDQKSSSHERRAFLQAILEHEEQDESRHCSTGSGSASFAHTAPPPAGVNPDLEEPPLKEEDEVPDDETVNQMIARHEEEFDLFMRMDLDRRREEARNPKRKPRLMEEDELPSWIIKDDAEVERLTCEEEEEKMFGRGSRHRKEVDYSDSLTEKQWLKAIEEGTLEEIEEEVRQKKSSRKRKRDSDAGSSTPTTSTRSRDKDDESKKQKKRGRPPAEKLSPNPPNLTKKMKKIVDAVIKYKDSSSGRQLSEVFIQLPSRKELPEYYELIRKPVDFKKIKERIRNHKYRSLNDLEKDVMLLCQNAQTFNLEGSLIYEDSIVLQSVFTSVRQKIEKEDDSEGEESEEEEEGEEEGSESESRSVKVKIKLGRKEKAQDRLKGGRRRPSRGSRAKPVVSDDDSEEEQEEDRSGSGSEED
T1 sequence (P51531 whole entry): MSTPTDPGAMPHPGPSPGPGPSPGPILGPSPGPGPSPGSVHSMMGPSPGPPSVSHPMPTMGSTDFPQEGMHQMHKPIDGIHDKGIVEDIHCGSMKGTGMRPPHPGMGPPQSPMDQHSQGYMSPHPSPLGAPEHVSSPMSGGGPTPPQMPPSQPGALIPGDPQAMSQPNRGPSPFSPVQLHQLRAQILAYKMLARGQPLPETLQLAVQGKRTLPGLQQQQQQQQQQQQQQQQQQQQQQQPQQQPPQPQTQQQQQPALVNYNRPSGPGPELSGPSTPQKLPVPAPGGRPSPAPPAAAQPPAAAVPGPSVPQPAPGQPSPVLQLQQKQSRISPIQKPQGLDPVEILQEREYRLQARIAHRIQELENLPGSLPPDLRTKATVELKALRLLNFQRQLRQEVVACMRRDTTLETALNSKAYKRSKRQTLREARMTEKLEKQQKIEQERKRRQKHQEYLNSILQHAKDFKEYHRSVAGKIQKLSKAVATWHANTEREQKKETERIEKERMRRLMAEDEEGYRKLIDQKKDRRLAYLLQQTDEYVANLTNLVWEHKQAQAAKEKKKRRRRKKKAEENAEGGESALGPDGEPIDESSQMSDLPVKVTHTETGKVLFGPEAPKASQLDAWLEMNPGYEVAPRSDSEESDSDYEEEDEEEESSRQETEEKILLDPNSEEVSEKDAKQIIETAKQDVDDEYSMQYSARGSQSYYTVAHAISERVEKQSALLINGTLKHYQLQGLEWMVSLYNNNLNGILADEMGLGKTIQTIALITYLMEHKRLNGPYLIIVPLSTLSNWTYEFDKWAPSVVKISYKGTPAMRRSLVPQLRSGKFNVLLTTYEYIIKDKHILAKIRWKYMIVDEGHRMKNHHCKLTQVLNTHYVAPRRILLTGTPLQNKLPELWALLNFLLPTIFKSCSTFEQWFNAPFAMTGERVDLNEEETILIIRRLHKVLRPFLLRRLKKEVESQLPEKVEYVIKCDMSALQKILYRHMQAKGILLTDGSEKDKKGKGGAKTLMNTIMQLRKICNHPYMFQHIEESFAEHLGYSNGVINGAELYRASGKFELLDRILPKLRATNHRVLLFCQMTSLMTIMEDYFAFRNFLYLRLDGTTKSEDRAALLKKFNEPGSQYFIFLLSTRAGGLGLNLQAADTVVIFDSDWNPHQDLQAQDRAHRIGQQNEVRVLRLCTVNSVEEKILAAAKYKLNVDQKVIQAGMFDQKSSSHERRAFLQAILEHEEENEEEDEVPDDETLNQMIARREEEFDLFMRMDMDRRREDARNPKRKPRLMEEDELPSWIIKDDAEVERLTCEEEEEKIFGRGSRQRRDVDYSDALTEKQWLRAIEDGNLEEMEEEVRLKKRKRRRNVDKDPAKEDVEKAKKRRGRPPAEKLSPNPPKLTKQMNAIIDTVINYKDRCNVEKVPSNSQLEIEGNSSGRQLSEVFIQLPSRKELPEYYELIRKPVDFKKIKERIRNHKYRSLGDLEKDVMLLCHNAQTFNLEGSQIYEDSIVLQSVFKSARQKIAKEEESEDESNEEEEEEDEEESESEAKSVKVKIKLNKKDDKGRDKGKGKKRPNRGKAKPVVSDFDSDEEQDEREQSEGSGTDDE

With `C[C@H]1CCOc2c(F)cc(C(=O)NCc3cc4nc(N5CCOc6cccnc65)ccc4cn3)cc2S1(=O)=O` [Compound 524], on BRM, half-maximal inhibition (IC50) required 14.6 nM and the “Ratio*” value came out at 11.68. Moreover, on BRG-1, the IC50 was determined as 171 nM.

As to `O=C(NCc1cc2nc(N3CCCc4ccc(C(F)(F)F)cc43)ccc2cn1)c1ccc2c(c1)S(=O)(=O)CCOC2` [Compound 525], the concentration for half-maximal inhibition (IC50) at BRM worked out at 25.1 nM; on BRG-1, 373 nM. On BRM, the “Ratio*” value was determined as 14.85.

Take `O=C(NCc1cc2nc(N3CCCc4c(F)ccnc43)ccc2cn1)c1ccc2c(c1)S(=O)(=O)CCOC2` [Compound 526]: the results for the IC50 at BRM and at BRG-1 were 22.1 nM and 250 nM, respectively. The “Ratio*” value on BRM amounted to 11.34.

`N#Cc1ccc2c(c1)CCCN2c1ccc2cnc(CNC(=O)c3ccc4c(c3)S(=O)(=O)CCOC4)cc2n1` [Compound 527]: the IC50 against BRM is 20.9 nM; on BRG-1, 177 nM. Further, the “Ratio*” value at BRM stood at 8.47.

On to `CC1CCc2ccc(-c3ccc4cnc(CNC(=O)c5ccc6c(c5)S(=O)(=O)CCOC6)cc4n3)nc2O1` (stereo not drawn) [Compound 529], for which, on BRM, the IC50 is 173 nM and the “Ratio*” value worked out at 3.88. In addition, the IC50 at BRG-1 was 671 nM.

Regarding `COc1nc(-c2ccc3cnc(CNC(=O)c4cc(F)c5c(c4)S(=O)(=O)[C@@H](C)COC5)cc3n2)ccc1C(F)F` [Compound 530], on BRM, it took 19.5 nM to reach half-maximal inhibition (IC50) and the “Ratio*” value came to 11.19. In addition, at BRG-1, the IC50 amounted to 218 nM.

As to `O=C(NCc1cc2nc(N3CCCc4ccc(C(F)F)cc43)ccc2cn1)c1ccc2c(c1)S(=O)(=O)CCOC2` [Compound 532], at BRM, the IC50 stood at 6.4 nM and the “Ratio*” value was determined as 18.84. For the same compound, at BRG-1, the IC50 amounted to 120 nM.

In the case of `O=C(NCc1cc2nc(N3CCCc4ccc(Cl)cc43)ccc2cn1)c1ccc2c(c1)S(=O)(=O)CCOC2` [Compound 533], on BRM, the IC50 came to 7.3 nM and the “Ratio*” value is 12.51. Further, the IC50 on BRG-1 stood at 91.4 nM.

Regarding `CO[C@H]1C[C@H]1N(C)c1cccc(-c2ccc3cnc(CNC(=O)c4ccc5c(c4)S(=O)(=O)CCOC5)cc3n2)n1` [Compound 534], the IC50 stood at 6.1 nM against BRM and 76.3 nM on BRG-1. Besides, the “Ratio*” value on BRM is recorded as 12.41.

`O=C(NCc1cc2nc(N3CCCc4ccc(C5CC5)nc43)ccc2cn1)c1ccc2c(c1)S(=O)(=O)CCOC2` [Compound 536]: on BRM, the IC50 came out at 10.4 nM and the “Ratio*” value worked out at 56.64. For the same compound, at BRG-1, the IC50 was 590 nM.

`Cc1ccc2c(n1)N(c1ccc3cnc(CNC(=O)c4ccc5c(c4)S(=O)(=O)CCCO5)cc3n1)CCC2` [Compound 538]: at BRM, 114 nM corresponded to half-maximal inhibition (IC50) and the “Ratio*” value was 14.67. Also, the IC50 on BRG-1 amounted to 1670 nM.

Consider `COc1ccc2c(c1)N(c1ccc3cnc(CNC(=O)c4ccc5c(c4)S(=O)(=O)CCOC5)cc3n1)CCC2` [Compound 539], for which the IC50 at BRM stood at 12.2 nM; at BRG-1, 153 nM. The “Ratio*” value at BRM stood at 12.53.

Regarding `CC1CN(c2cccc(-c3ccc4cnc(CNC(=O)c5ccc6c(c5)S(=O)(=O)C(C)COC6C)cc4n3)n2)CC(C)O1` (stereo not drawn) [Compound 540], the IC50 amounted to 30.7 nM on BRM and 632 nM on BRG-1. Besides, the “Ratio*” value on BRM was 20.63.

For `COc1nc(C(C)(F)F)ccc1-c1ccc2cnc(CNC(=O)c3ccc4c(c3)S(=O)(=O)[C@@H](C)COC4)cc2n1` [Compound 542], at BRM, the IC50 amounted to 16.8 nM and the “Ratio*” value is 13.60. Moreover, the IC50 on BRG-1 amounted to 229 nM.

`COc1nc(C(C)(F)F)ccc1-c1ccc2cnc(CNC(=O)c3cc(F)c4c(c3)S(=O)(=O)[C@@H](C)COC4)cc2n1` [Compound 543]: on BRM, the IC50 stood at 20.2 nM and the “Ratio*” value is 18.97. Also, at BRG-1, the IC50 came out at 383 nM.

In the case of `Cc1cc(C(=O)NCc2cc3nc(-c4cccc(N5C[C@@H](C)O[C@@H](C)C5)n4)ccc3cn2)cc2c1O[C@@H](C)CCS2(=O)=O` [Compound 544], on BRM, the IC50 stood at 41.8 nM and the “Ratio*” value worked out at 24.42. For the same compound, the IC50 at BRG-1 came to 1020 nM.

Turning to `Cc1cnc2c(c1)OCCN2c1ccc2cnc(CNC(=O)c3ccc4c(c3)S(=O)(=O)C(C)COC4)cc2n1` (stereo not drawn) [Compound 545], on BRM, it took 7.7 nM to reach half-maximal inhibition (IC50) and the “Ratio*” value is 8.60. Further, the IC50 on BRG-1 worked out at 65.9 nM.

With `COc1ccc2c(c1)OCCN2c1ccc2cnc(CNC(=O)c3ccc4c(c3)S(=O)(=O)CCOC4)cc2n1` [Compound 548], the values for the IC50 on BRM and on BRG-1 were 5.4 nM and 51.7 nM, respectively. The “Ratio*” value at BRM was found to be 9.59.

For `Cc1cnc2c(c1)OCCN2c1ccc2cnc(CNC(=O)c3cc(C)c4c(c3)S(=O)(=O)CCOC4)cc2n1` [Compound 549], the IC50 at BRM is 7.3 nM; at BRG-1 it was 131 nM. Moreover, the “Ratio*” value at BRM is 17.80.

On to `Cc1cnc2c(c1)OCCN2c1ccc2cnc(CNC(=O)c3cc(F)c4c(c3)S(=O)(=O)CCOC4)cc2n1` [Compound 550], for which the IC50 at BRM amounted to 5.3 nM; on BRG-1, 63.9 nM. Moreover, the “Ratio*” value at BRM is given as 12.09.

On to `Cc1ccc2c(c1)OCCN2c1ccc2cnc(CNC(=O)c3ccc4c(c3)S(=O)(=O)CCCO4)cc2n1` [Compound 551], for which, on BRM, half-maximal inhibition (IC50) was put at 20.3 nM and the “Ratio*” value amounted to 19.65. At BRG-1, the IC50 was 399 nM.

As for `Cc1cnc2c(c1)OCCN2c1ccc2cnc(CNC(=O)c3cc(Cl)c4c(c3)S(=O)(=O)CCOC4)cc2n1` [Compound 552], on BRM, the IC50 amounted to 9.8 nM and the “Ratio*” value was determined as 19.48. For the same compound, the IC50 at BRG-1 turned out to be 190 nM.

Take `C[C@@H]1CN(c2cccc(-c3ccc4cnc(CNC(=O)c5cc(Cl)c6c(c5)S(=O)(=O)CCO[C@@H]6C)cc4n3)n2)C[C@H](C)O1` [Compound 553]: at BRM, it took 20.4 nM to reach half-maximal inhibition (IC50) and the “Ratio*” value is given as 22.48. Besides, at BRG-1, the IC50 was determined as 458 nM.

For `Cc1cnc2c(c1)OCCN2c1ccc2cnc(CNC(=O)c3cc(F)c4c(c3)S(=O)(=O)[C@@H](C)COC4)cc2n1` [Compound 554], on BRM, the concentration for half-maximal inhibition (IC50) came to 8.6 nM and the “Ratio*” value was determined as 9.64. Moreover, the IC50 at BRG-1 came out at 83.1 nM.

For `O=C(NCc1cc2nc(N3CCCc4c(OC5COC5)cccc43)ccc2cn1)c1ccc2c(c1)S(=O)(=O)CCOC2` [Compound 555], on BRM, the midpoint of inhibition, the IC50, lay at 4.6 nM and the “Ratio*” value is 5.44. Further, the IC50 on BRG-1 amounted to 25 nM.

Take `Cc1ccc2c(n1)N(c1ccc3cnc(CNC(=O)c4ccc5c(c4)S(=O)(=O)CCOC5)cc3n1)CCO2` [Compound 557]: the IC50 stood at 11.3 nM against BRM and 235 nM at BRG-1. Moreover, the “Ratio*” value at BRM turned out to be 20.89.

Take `N#Cc1ccc2c(c1)N(c1ccc3cnc(CNC(=O)c4ccc5c(c4)S(=O)(=O)CCOC5)cc3n1)CCC2` [Compound 558]: on BRM, the IC50 was 9.3 nM and the “Ratio*” value amounted to 14.96. At BRG-1, the IC50 came out at 139 nM.

On to `CO[C@@H](C)c1ccc2c(n1)N(c1ccc3cnc(CNC(=O)c4ccc5c(c4)S(=O)(=O)CCOC5)cc3n1)CCC2` [Compound 561], for which, at BRM, it took 67.2 nM to reach half-maximal inhibition (IC50) and the “Ratio*” value is on record as 12.50. In addition, on BRG-1, the IC50 was found to be 839 nM.

For `CCOCc1ccc2c(n1)N(c1ccc3cnc(CNC(=O)c4ccc5c(c4)S(=O)(=O)CCOC5)cc3n1)CCC2` [Compound 564], the figures for the IC50 against BRM and on BRG-1 were 33.6 nM and 881 nM, respectively. Moreover, the “Ratio*” value at BRM turned out to be 26.25.

Consider `COc1cnc2c(c1)CCCN2c1ccc2cnc(CNC(=O)c3ccc4c(c3)S(=O)(=O)CCOC4)cc2n1` [Compound 565], for which, on BRM, the IC50 was 11.5 nM and the “Ratio*” value turned out to be 12.06. Besides, the IC50 on BRG-1 is 138 nM.

In the case of `O=C(NCc1cc2nc(N3CCCc4ccc(N5CCC5)nc43)ccc2cn1)c1ccc2c(c1)S(=O)(=O)CCOC2` [Compound 566], on BRM, half-maximal inhibition (IC50) was put at 32.6 nM and the “Ratio*” value is recorded as 20.83. In addition, the IC50 on BRG-1 was 679 nM.

Regarding `CC1CN(c2cccc(-c3ccc4cnc(CNC(=O)c5ccc6c(c5)S(=O)(=O)C(C)CN6C)cc4n3)n2)CC(C)O1` (stereo not drawn) [Compound 567], the IC50 on BRM came out at 32.8 nM; on BRG-1, 534 nM. Also, the “Ratio*” value at BRM came out at 16.28.

Consider `COc1ccc2c(n1)N(c1ccc3cnc(CNC(=O)c4ccc5c(c4)S(=O)(=O)CCOC5)cc3n1)CCC2` [Compound 568], for which, at BRM, the IC50 came out at 106 nM and the “Ratio*” value was 9.95. Further, the half-inhibitory concentration (IC50) at BRG-1 turned out to be 1060 nM.

Consider `CN1CCCCc2ccc(-c3ccc4cnc(CNC(=O)c5ccc6c(c5)S(=O)(=O)CCOC6)cc4n3)nc21` [Compound 569], for which the IC50 at BRM stood at 156 nM; on BRG-1, 517 nM. The “Ratio*” value at BRM was found to be 3.32.

As for `O=C(NCc1cc2nc(N3CCCc4ccc(C(F)(F)F)nc43)ccc2cn1)c1ccc2c(c1)S(=O)(=O)CCOC2` [Compound 570], the IC50 against BRM worked out at 66.9 nM; on BRG-1 it was 557 nM. In addition, the “Ratio*” value at BRM amounted to 8.32.

`CCOc1ccnc2c1CCCN2c1ccc2cnc(CNC(=O)c3ccc4c(c3)S(=O)(=O)CCOC4)cc2n1` [Compound 573]: at BRM, the IC50 turned out to be 7.9 nM and the “Ratio*” value is 5.56. Also, on BRG-1, the IC50 was 43.8 nM.

As to `O=C(NCc1cc2nc(-n3cc(F)c(N4CCOCC4)n3)ccc2cn1)c1ccc2c(c1)S(=O)(=O)CCOC2` [Compound 574], at BRM, the IC50 is 274 nM and the “Ratio*” value came out at 6.49. In addition, the IC50 on BRG-1 is 1780 nM.

Take `C[C@H]1CN(c2cccc(-c3ccc4cnc(CNC(=O)c5ccc(Cl)c(S(C)(=O)=O)c5)cc4n3)n2)CC[C@@H]1O` [Compound 575]: on BRM, the IC50 turned out to be 5.4 nM and the “Ratio*” value is listed as 15.34. At BRG-1, the IC50 was found to be 82.3 nM.

Values taken from patent US20230416248A1, “COMPOUNDS AND USES THEREOF” (Foghorn Therapeutics Inc., priority 2020, published 2023).
